Tests used:
Assay type in all cases: in vivo
[1] = system: giant foxtail (Setaria faberi); assay: Test G Post-Emergence Protocol; conditions: Setaria faberi, post-emergence, 312 h
How it was run: (§1)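 Damage was rated 13 days after treatment from 0 (none) to 100 (plant killed). Compound was applied as a spray at 15.625, 62.5 or 250 g/ha in 50:50 acetone/water containing 0.5% Tween 20, onto 8-day-old potted plants kept in a glasshouse (24/16 °C, 14 h light, 65% humidity).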

corn (Zea mays) [2] = assay: Test G Post-Emergence Protocol; conditions: Zea mays, post-emergence, 312 h
How it was run: as §1

[3] = system: redroot pigweed (Amaranthus retroflexus); assay: Test G Post-Emergence Protocol; conditions: Amaranthus retroflexus, post-emergence, 312 h
How it was run: as §1

[4] = system: ivy-leaved morning glory (Ipomoea hederacea); assay: Test G Post-Emergence Protocol; conditions: Ipomoea, post-emergence, 312 h
How it was run: as §1

[5] = system: barnyardgrass (Echinochloa crus-galli); assay: Test G Post-Emergence Protocol; conditions: Echinochloa crus-galli, post-emergence, 312 h
How it was run: as §1

[6] = system: velvetleaf (Abutilon theophrasti); assay: Test G Post-Emergence Protocol; conditions: Abutilon theophrasti, post-emergence, 312 h
How it was run: as §1

[7] = system: giant foxtail (Setaria faberi); assay: Test G Pre-Emergence Protocol; conditions: Setaria faberi, pre-emergence, 312 h, evaluated after 13 days
How it was run: (§2)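 Visual injury (0–100) at day 13 after a single pre-emergence spray. Rates: 15.625, 62.5, 250 g/ha in acetone–water 50:50 with 0.5% Tween 20. Growth conditions: 24/16° C, 14 h light, 65% humidity.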

corn (Zea mays) [8] = assay: Test G Pre-Emergence Protocol; conditions: Zea mays, pre-emergence, 312 h, evaluated after 13 days
How it was run: as §2

[9] = system: redroot pigweed (Amaranthus retroflexus); assay: Test G Pre-Emergence Protocol; conditions: Amaranthus retroflexus, pre-emergence, 312 h, evaluated after 13 days
How it was run: as §2

[10] = system: ivy-leaved morning glory (Ipomoea hederacea); assay: Test G Pre-Emergence Protocol; conditions: Ipomoea, pre-emergence, 312 h, evaluated after 13 days
How it was run: as §2

[11] = system: barnyardgrass (Echinochloa crus-galli); assay: Test G Pre-Emergence Protocol; conditions: Echinochloa crus-galli, pre-emergence, 312 h, evaluated after 13 days
How it was run: as §2

[12] = system: velvetleaf (Abutilon theophrasti); assay: Test G Pre-Emergence Protocol; conditions: Abutilon theophrasti, pre-emergence, 312 h, evaluated after 13 days
How it was run: as §2

Cc1cc(NC(=O)[C@@H]2C(=O)N(C)C[C@H]2c2ccc(C(F)(F)F)cc2)no1 (racemic) [Compound 1556]
20%: pest or weed control at 250 g/ha ([5]; 250 g ai/ha, evaluated after 13 days, read-out: damage to plant, Barnyardgrass (100=total damage to plant; 0=no damage to plant)) | pest or weed control at 250 g/ha ([9]; 250 g ai/ha, read-out: Pigweed, Redroot damage rating (100=total damage to plant; 0=no damage to plant))
0%: pest or weed control at 15.625 g/ha ([1]; 15.625 g ai/ha, evaluated after 13 days (100=total damage to plant; 0=no damage to plant), read-out: Foxtail, Giant damage rating) | pest or weed control at 62.5 g/ha ([1]; 62.5 g ai/ha, evaluated after 13 days, read-out: Foxtail, Giant damage rating (100=total damage to plant; 0=no damage to plant)) | pest or weed control at 250 g/ha ([1]; 250 g ai/ha, evaluated after 13 days, read-out: damage to plant, Foxtail, Giant (100=total damage to plant; 0=no damage to plant)) | plant injury at 15.625 g/ha (corn (Zea mays) [2]; 15.625 g ai/ha, evaluated after 13 days (100=total damage to plant; 0=no damage to plant), read-out: Corn damage rating) | plant injury at 62.5 g/ha (corn (Zea mays) [2]; 62.5 g ai/ha, evaluated after 13 days, read-out: Corn damage rating (100=total damage to plant; 0=no damage to plant)) | plant injury at 250 g/ha (corn (Zea mays) [2]; 250 g ai/ha, evaluated after 13 days, read-out: damage to plant, Corn (100=total damage to plant; 0=no damage to plant)) | pest or weed control at 15.625 g/ha ([3]; 15.625 g ai/ha, evaluated after 13 days (100=total damage to plant; 0=no damage to plant), read-out: Pigweed, Redroot damage rating) | pest or weed control at 62.5 g/ha ([3]; 62.5 g ai/ha, evaluated after 13 days, read-out: Pigweed, Redroot damage rating (100=total damage to plant; 0=no damage to plant)) | pest or weed control at 250 g/ha ([3]; 250 g ai/ha, evaluated after 13 days, read-out: damage to plant, Pigweed, Redroot (100=total damage to plant; 0=no damage to plant)) | pest or weed control at 15.625 g/ha ([4]; 15.625 g ai/ha, evaluated after 13 days (100=total damage to plant; 0=no damage to plant), read-out: Morningglory, Ivy-leaved damage rating) | pest or weed control at 62.5 g/ha ([4]; 62.5 g ai/ha, evaluated after 13 days, read-out: Morningglory, Ivy-leaved damage rating (100=total damage to plant; 0=no damage to plant)) | pest or weed control at 250 g/ha ([4]; 250 g ai/ha, evaluated after 13 days, read-out: damage to plant, Morningglory, Ivy-leaved (100=total damage to plant; 0=no damage to plant)) | pest or weed control at 15.625 g/ha ([5]; 15.625 g ai/ha, evaluated after 13 days (100=total damage to plant; 0=no damage to plant), read-out: Barnyardgrass damage rating) | pest or weed control at 62.5 g/ha ([5]; 62.5 g ai/ha, evaluated after 13 days, read-out: Barnyardgrass damage rating (100=total damage to plant; 0=no damage to plant)) | pest or weed control at 15.625 g/ha ([6]; 15.625 g ai/ha, evaluated after 13 days (100=total damage to plant; 0=no damage to plant), read-out: Velvetleaf damage rating) | pest or weed control at 62.5 g/ha ([6]; 62.5 g ai/ha, evaluated after 13 days, read-out: Velvetleaf damage rating (100=total damage to plant; 0=no damage to plant)) | pest or weed control at 250 g/ha ([6]; 250 g ai/ha, evaluated after 13 days, read-out: damage to plant, Velvetleaf (100=total damage to plant; 0=no damage to plant)) | pest or weed control at 15.625 g/ha ([7]; 15.625 g ai/ha, read-out: Foxtail, Giant damage rating (100=total damage to plant; 0=no damage to plant)) | pest or weed control at 62.5 g/ha ([7]; 62.5 g ai/ha, 100=total damage to plant, 0=no damage to plant, read-out: plant damage rating, Foxtail, Giant) | pest or weed control at 250 g/ha ([7]; 250 g ai/ha, read-out: Foxtail, Giant damage rating (100=total damage to plant; 0=no damage to plant)) | plant injury at 15.625 g/ha (corn (Zea mays) [8]; 15.625 g ai/ha, read-out: Corn damage rating (100=total damage to plant; 0=no damage to plant)) | plant injury at 62.5 g/ha (corn (Zea mays) [8]; 62.5 g ai/ha, 100=total damage to plant, 0=no damage to plant, read-out: plant damage rating, Corn) | plant injury at 250 g/ha (corn (Zea mays) [8]; 250 g ai/ha, read-out: Corn damage rating (100=total damage to plant; 0=no damage to plant)) | pest or weed control at 15.625 g/ha ([9]; 15.625 g ai/ha, read-out: Pigweed, Redroot damage rating (100=total damage to plant; 0=no damage to plant)) | pest or weed control at 62.5 g/ha ([9]; 62.5 g ai/ha, 100=total damage to plant, 0=no damage to plant, read-out: plant damage rating, Pigweed, Redroot) | pest or weed control at 15.625 g/ha ([10]; 15.625 g ai/ha, read-out: Morning-glory, Ivy-leaved damage rating (100=total damage to plant; 0=no damage to plant)) | pest or weed control at 62.5 g/ha ([10]; 62.5 g ai/ha, 100=total damage to plant, 0=no damage to plant, read-out: plant damage rating, Morningglory, Ivy-leaved) | pest or weed control at 250 g/ha ([10]; 250 g ai/ha, read-out: Morningglory, Ivy-leaved damage rating (100=total damage to plant; 0=no damage to plant)) | pest or weed control at 15.625 g/ha ([11]; 15.625 g ai/ha, read-out: Barnyard grass damage rating (100=total damage to plant; 0=no damage to plant)) | pest or weed control at 62.5 g/ha ([11]; 62.5 g ai/ha, 100=total damage to plant, 0=no damage to plant, read-out: plant damage rating, Barnyardgrass) | pest or weed control at 250 g/ha ([11]; 250 g ai/ha, read-out: Barnyardgrass damage rating (100=total damage to plant; 0=no damage to plant)) | pest or weed control at 15.625 g/ha ([12]; 15.625 g ai/ha, read-out: Velvetleaf damage rating (100=total damage to plant; 0=no damage to plant)) | pest or weed control at 62.5 g/ha ([12]; 62.5 g ai/ha, 100=total damage to plant, 0=no damage to plant, read-out: plant damage rating, Velvetleaf) | pest or weed control at 250 g/ha ([12]; 250 g ai/ha, read-out: Velvetleaf damage rating (100=total damage to plant; 0=no damage to plant))

Source: patent publication US12077503B2, “Substituted cyclic amides and their use as herbicides” (FMC CORPORATION, priority 2015, dated 2024)
